Laboratory results reported in patent publication US20240252552A1, “LIPOTEICHOIC ACID FROM STAPHYLOCOCCUS EPIDERMIDIS AND ITS USE TO MODULATE NEURONAL ACTIVITY VIA PD-1 INHIBITORY SIGNALLING IN NEURONS” (Northwestern University, priority 2023, published 2024).
“Also recorded” adds a separate entry of the source.

Tests used:
[1] = test system: PD-1; assay: PD-1 expression in ex vivo dorsal root ganglion culture (immunofluorescence, qPCR); format: cell-based; details: ex vivo DRG, MMG11 + SELTA, TLR2 blockade
Description: FIGS. 5A, 5B, 5C, 5D, and 5E. […] Scale bars=10 μm. (B) Distribution of intensity of PD-1 immunoreactivity in DRG based on the size of individual neurons in control (upper) and SELTA treatment (bottom). […] For all quantification analysis, a two-way ANOVA was used. *P<0.05, **P<0.01, #P<0.05. n=3 to 4 per group.
SELTA elevated PD-1 expression in primary sensory neurons. The inventor next examined PD-1 expression in the primary afferent neurons following direct exposure to SELTA. The inventor performed an ex vivo dorsal root ganglion (DRG) culture using DRG isolated at the levels of L2 to S1. Following 24-hour co-culture with SELTA, the expression of PD-1 was probed using immunofluorescence followed by confocal microscopy (FIG. 5A). To ascertain the cellular distribution of increased PD-1 expression, ImageJ analyses-based on individual cells were done and presented as the function of PD-1 immunoreactivity intensity to the cell size (FIG. 5B). Quantification was based on cell size-differential average fluorescence intensity (FIG. 5C). […] To further understand the expression of PD-1, immunoreactive intensities were normalized to the neuronal marker Neu-N (FIG. 5D). Changes were largely similar to FIG. 5C. The inventor next sought to examine whether the SELTA receptor TLR2 was involved in the modulation of PD-1 expression by SELTA. […]

[2] = test system: trigeminal ganglion (TG) neurons; assay: Real-time Ca2+ imaging (fura-2 AM) of ATP-stimulated TG neuronal cultures; format: cell-based, C57Bl/6 mice; details: TG neurons preincubated with MMG11
Description: FIG. 8. […] Analysis with Student's t test, p<0.0001.
SELTA-induced inhibition of Ca^2+ influx is reversed by neutralizing PD-1. In the transduction of nociceptive signal, Ca^2+ influx through voltage-gated Ca^2+ channels is critical for neurotransmitter release and synaptic transmission (12-14). To investigate whether intracellular Ca^2+ dynamics in the afferents are affected by SELTA (8, 15), the inventor established in vitro trigeminal ganglion (TG) neuronal cultures from adult C57Bl/6 mice and performed real-time Ca^2+ imaging using fura-2 AM (FIG. 8). Cells were pretreated with vehicle or SELTA prior to stimulation with 20 uM ATP. TLR2 specificity of these effects were examined by using MMG11, a TLR2-specific antagonist (10) and PD-1 requirement was examined by pre-incubation with an anti-PD-1 antibody (16).

## CCOC(=O)c1ccc(CC(=O)c2ccc(O)c(O)c2O)o1 [MMG11]
[1]
  effect on SELTA-induced PD-1 mRNA expression (qPCR): abrogated the elevation in PD-1 expression
[2]
  effect of TLR2 blockade on SELTA-mediated inhibition of Ca2+ influx: abrogated the SELTA mediated inhibition of Ca^2+ influx; also recorded: reverses SELTA-induced reduction of Ca2+ influx
